For the experiment, the target named is Integrase (HIV-1). Description: Inhibitory activity against strand transfer in wild-type HIV-1 integrase was determined using 21-mer oligonucleotide substrate.

The structures appear in SMILES notation.

The text below walks through data of BindingDB's records for doi:10.1016/j.bmcl.2004.07.050 (University of Georgia, 2004).

One may read the IC50 as the midpoint of a concentration-inhibition curve. `Nc1ncnc2c1ncn2C1CC(OP(=O)(O)OCC2OCC(n3cnc4c(N)ncnc43)C2O)C(COP(=O)(O)O)O1` (configuration not stated) [Phosphoric acid 4-(6-amino-purin-9-yl)-3-hydroxy-tetrahydro-furan-2-ylmethyl ester 5-(6-amino-purin-9-yl)-2-phosphonooxymethyl-tetrahydro-furan-3-yl ester] showed an IC50 of 41 µM. `Nc1ccn(C2COC(COP(=O)(O)OC3CC(n4cnc5c(N)ncnc54)OC3COP(=O)(O)O)C2O)c(=O)n1` (configuration not stated) [[4-(4-amino-2-oxo-1,2-dihydropyrimidin-1-yl)-3-hydroxyoxolan-2-yl]methyl [5-(6-amino-9H-purin-9-yl)-2-[(phosphonatooxy)methyl]oxolan-3-yl] phosphate] showed an IC50 of 65 µM.
